Series [1] has as its system Myzus persicae. As to the kind of experiment: JA seed treatment, sweet pepper plants challenged with aphids. It is filed as in vivo. The settings on record: sweet pepper cv Biscayne, seed treatment 1.5 mM JA. Here is the method:
Tomato, pepper, maize and wheat seeds were treated with 3 mM JA or 1.5 mM JA solutions or with 3 mM methyl jasmonate (MeJA) or with deionised water containing 42.8 mM ethanol (control) by full submersion of up to 40 seeds in a Petri dish of solution wrapped in foil for a period of 24 hours at 4° C. in a fridge. A temperature of 4° C. was used both to prevent degradation of the jasmonic acid solutions and to prevent germination of the seeds. Pepper seeds were sown in peat-based compost and grown in unheated glass houses under ambient conditions in the summer. Tomato plants were then challenged with Tetranychus urticae (two-spotted spider mite) which were allowed to feed for 9 days, Manduca sexta (tobacco hornworm) caterpillars which were allowed to feed for 4 days or Myzus persicae (aphid), which were allowed to feed for 10 or 12 days. In each case these organisms were restricted to the plant on which they had originally been placed. Pepper plants were challenged with Myzus persicae (aphid), which were allowed to feed for 2 weeks. […] The effect of Myzus persicae on plants was determined by counting the aphid population on each plant under a dissecting microscope at ×10 magnification. […] Aphids were allowed to feed on the plants for two weeks and the growth of the aphid population over this period was then measured. […]

Series [2] deals with Tetranychus urticae (two-spotted spider mite). As to the kind of experiment: Spider mite challenge of untreated tomato plants grown adjacent to plants from JA-treated seeds. The settings on record: tomato cv Carousel; neighbours of 1.5 or 3.0 mM JA seed treatment. It is filed as in vivo. Here is the method:
The effect of Tetranychus urticae on plants was measured by means of counting the number of live and dead mites on each plant and the number of mite eggs present using a dissecting microscope. Seeds of a UK commercial F1 hybrid tomato variety (cv. Carousel) were treated with either 1.5 or 3.0 mM jasmonic acid (JA) and 42.8 mM ethanol in deionised H2O for a period of 24 hours at 4° C. in the dark. Those seeds were then removed from solution and washed in deionised H2O only to remove the JA coating the outside of the seed. Those seed were then germinated in a commercial manner using rockwool blocks and were grown on under glasshouse conditions appropriate to this crop. Plants were challenged with two-spotted spider mite (Tetranychus urticae) 7 weeks after treatment a common crop pest, acting here as a “model herbivore”. […] The effect was observed on comparing the controls located at least 10 meters away. (FIG. 6). The illustrated data are means of 10 replicates+/−standard error of the mean. […] The effect was again observed on comparing the controls located at least 10 meters away. (FIG. 7). The illustrated data are means of 10 replicates+/−standard error of the mean.

The test system of series [3] is Spodoptera exempta. As to the kind of experiment: JA seed treatment, maize plants challenged with Spodoptera exempta caterpillars. It is filed as in vivo. The settings on record: maize cv. Earligold, seed treatment 1.5 mM JA, 2 days feeding. Here is the method:
(§1) Tomato, pepper, maize and wheat seeds were treated with 3 mM JA or 1.5 mM JA solutions or with 3 mM methyl jasmonate (MeJA) or with deionised water containing 42.8 mM ethanol (control) by full submersion of up to 40 seeds in a Petri dish of solution wrapped in foil for a period of 24 hours at 4° C. in a fridge. A temperature of 4° C. was used both to prevent degradation of the jasmonic acid solutions and to prevent germination of the seeds.
(§2) Wheat and maize seeds were sown in peat-based compost and grown in unheated glass houses with supplementary lighting. (600 W SON-T lamps, for 16 hours per day) in the autumn.
(§3) Tomato plants were then challenged with Tetranychus urticae (two-spotted spider mite) which were allowed to feed for 9 days, Manduca sexta (tobacco hornworm) caterpillars which were allowed to feed for 4 days or Myzus persicae (aphid), which were allowed to feed for 10 or 12 days. […]
(§4) The effect of Manduca sexta or Spodoptera exempta on plants was determined by measurement of the leaf area eaten, measured using a leaf area meter.
Seeds of maize cv. […] Caterpillars were allowed to feed on the plants for 2 days and the area of grazed leaves was then measured. […] When expressed as the area of leaf consumed per unit weight of caterpillars the reduction in plants grown from seed treated with JA was even more pronounced (40%, p<0.001, FIG. 9). […]

Series [4] deals with Spodoptera exempta. In words: JA seed treatment, wheat plants challenged with Spodoptera exempta caterpillars. It is filed as in vivo. To be noted: wheat cv. Einstein; seed treatment 1.5 mM JA; challenged 7 weeks after seed treatment; 3 days feeding; p<0.01. Here is the method:
as §1, §2, §3, §4
Seeds of the commercial wheat variety (cv. Einstein) were treated with 1.5 mM jasmonic acid (JA), and plants grown in the glasshouse (as described under Example 1). […] Caterpillars were allowed to feed on the plants for 3 days and the area of grazed leaves was then measured. […]

Series [5] deals with tomato (cv. Carousel). As to the kind of experiment: Long term growth and yield study after JA seed treatment, tomato. Type of series: in vivo, Solanum lycopersicum. The text has this:
(§5) Data are means of 8 replicate plants+/−standard error of the mean, and the line is a fitted growth response.

Series [6] relates to cucumber. As to the kind of experiment: Long term growth and yield study after JA seed treatment, cucumber. Type of series: in vivo. The settings on record: seed treatment 1.5 or 3.0 mM JA, weekly harvests.
Description: as §5

For series [7], the system named is pepper. As to the kind of experiment: Long term growth and yield study after JA seed treatment, pepper. The settings on record: seed treatment 1.5 or 3.0 mM JA, weekly harvests. It is filed as in vivo.
Description: as §5

Where [8] appears, read: tomato cv. Carousel, JA seed treatment vs control, 8 replicate plants.

For `CC/C=C\C[C@H]1C(=O)CC[C@@H]1CC(=O)O` [JA, jasmonic acid], the “Rate of aphid population growth compared with controls” value in series [1] (challenged 8 weeks after seed treatment, 2 weeks feeding) is reported as “significant (p<0.001) reduction”. Also, the “Aphid population growth rate from fitted growth curves” value in series [1] (control 0.19+/-0.011) is on record as 0.11+/−0.016. In addition, in series [2], the “Population of T. urticae on untreated plants grown adjacent to plants from JA-treated seeds, vs controls at least 10 meters away” value is recorded as “significant reduction”. In addition, the “Reproductive rate of the mite (egg production) on untreated plants grown adjacent to plants from JA-treated seeds, vs controls at least 10 meters away” value in series [2] is given as “significant reduction”. Further, the “Area of leaf consumed per unit weight of caterpillars, reduction vs controls” value in series [3] (p<0.001) was found to be 40%. Besides, the “Leaf area consumed by caterpillars, lower than controls” value in series [3] (tassel stage approx. 10 weeks after seed treatment, p<0.05) was determined as 38%; in series [4], 60%. The “Fruit dry weight at each weekly harvest” value in series [5] (setting [8]) is given as “no significant effects”. In addition, the “Number of fruit at each weekly harvest” value in series [5] (setting [8]) was “no significant effects”. In addition, in series [5] (setting [8]), the “Plant height at each weekly harvest” value was “no significant effects”. Besides, the “Vegetative or reproductive growth, or commercial yield” value is “no significant effect” in series [5] (tomato, seed treatment 1.5 or 3.0 mM JA, weekly harvests); “no significant effect” in series [6]; “no significant effect” in series [7].

For the origin of these results see patent US8507756B2, “Plant protection” (Plant Bioscience Limited, priority 2007, dated 2013).
